US10918601B2, “Spray-dried pharmaceutical compositions comprising active agent nanoparticles” (Besins Healthcare Luxembourg SARL, priority 2013, dated 2021)

Experiment: Particle size of mometasone furoate before milling, after roller milling and after spray drying
Format: physicochemical
Conditions: before roller milling
Experimental: Spray Drying Conditions: Inlet temperature=110° C.; Outlet temperature=54° C.; Aspirator=100%; Pump rate=20%; Q flow=50%; Nozzle cap=1.5 mm.
Roller Milling Conditions: Mometasone Furoate—initial median size—19.7 μm. Samples are milled in 250 mL jars for 3 hours with 0.5 mm YTZ media. Particle size diameter (PSD), after 3 hours milling, is measured in water. After milling, the suspension is extracted (needle 22G) from jars and mixed according the table and procedure shown. Procedure for Preparation of the Spray Drying Suspensions: The amounts of HPMC, MCC and H2O used is based on the extracted quantity of the suspension (Table II). HPMC is added as a solution prepared in H2O. HPMC solution is added to the extracted suspension and mixed for 15 minutes. MCC (Grade PH-F20JP, 20 μm) is added and mixed for 15 minutes. Particle size diameter (PSD) is measured after spray drying by dispersing the spray-dried powder in a liquid such as isopropyl palmitate or silicone oil, which are non-solvents for the components and will not alter particle size or cause disintegration of the composite particle. Materials: Mometasone Furoate (Hovione, East Windsor, N.J.); Citric acid, anhydrous (Fisher, Hampton, N.H.); Benzalkonium chloride (Fluka, St. Louis, Mo.); Microcrystalline cellulose (AsahKasei, Glenview, Ill.); Hydroxypropylmethyl cellulose (Colorcon, Harleysville, Pa.). […]

initial median size: 19.7 μm
Structure (SMILES): C[C@@H]1C[C@H]2[C@@H]3CCC4=CC(=O)C=C[C@]4(C)[C@@]3(Cl)[C@@H](O)C[C@]2(C)[C@@]1(OC(=O)c1ccco1)C(=O)CCl [Mometasone Furoate, (11β,16α)-9,21-dichloro-11-hydroxy-16-methyl-3,20-dioxopregna-1,4-dien-17-yl 2-furoate]
